Literature values as cited in PubChem BioAssay AID1259409 (Chemical Carcinogenesis Research Information System (CCRIS), 2018).

System: rodent chemically induced tumor inhibition, incidence and multiplicity
Test: CCRIS tumor inhibitor studies
Settings: Carcinogen: N-NITROSOBIS(2-OXYPROPYL)AMINE, 60599-38-4, Route [Inhibitor]: ORAL, Species: HAMSTER, Promoter: NONE USED

CCNC(=O)/C=C(C)/C=C/C=C(C)/C=C/C1=C(C)CCCC1(C)C
tumour outcome (control, treated, inhibition, significance) (Dose [Inhibitor]: 0.05, 0.1 OR 0.2 MILLIMOLAR/KG DIET FOR 32 WK STARTING 1 WK AFTER THE CARCINOGEN DOSE (STUDY DURATION: 33 WK), Strain/Sex: SYRIAN/FEMALE, Target Tissue: Type of Lesion: GALL BLADDER: ADENOMA, Dose [Carcinogen]: 40 MG/KG ONCE): 6/10 (60%), 2/23 (9%), 85%, p<0.025
tumour outcome (control, treated, inhibition, significance) (Dose [Inhibitor]: 0.05, 0.1 OR 0.2 MILLIMOLAR/KG DIET FOR 32 WK STARTING 1 WK AFTER THE CARCINOGEN DOSE (STUDY DURATION: 33 WK), Strain/Sex: SYRIAN/FEMALE, Target Tissue: Type of Lesion: LIVER: ADENOMA, Dose [Carcinogen]: 40 MG/KG ONCE): 6/10 (60%), 13/23 (59%), 2%, not significant
tumour outcome (control, treated, inhibition, significance) (Dose [Inhibitor]: 0.05, 0.1 OR 0.2 MILLIMOLAR/KG DIET FOR 32 WK STARTING 1 WK AFTER THE CARCINOGEN DOSE (STUDY DURATION: 33 WK), Strain/Sex: SYRIAN/FEMALE, Target Tissue: Type of Lesion: LUNG: ADENOMA, Dose [Carcinogen]: 40 MG/KG ONCE): 3/10 (30%), 9/23 (41%), -37%, not significant
tumour outcome (control, treated, inhibition, significance) (Dose [Inhibitor]: 0.05, 0.1 OR 0.2 MILLIMOLAR/KG DIET FOR 32 WK STARTING 1 WK AFTER THE CARCINOGEN DOSE (STUDY DURATION: 33 WK), Strain/Sex: SYRIAN/FEMALE, Target Tissue: Type of Lesion: PANCREAS: ADENOMA, Dose [Carcinogen]: 40 MG/KG ONCE): 10/10 (100%), 22/23 (96%), 4%, not significant
tumour outcome (control, treated, inhibition, significance) (Dose [Inhibitor]: 0.05, 0.1 OR 0.2 MILLIMOLAR/KG DIET FOR 32 WK STARTING 1 WK AFTER THE CARCINOGEN DOSE (STUDY DURATION: 33 WK), Strain/Sex: SYRIAN/FEMALE, Target Tissue: Type of Lesion: PANCREAS: CARCINOMA, Dose [Carcinogen]: 40 MG/KG ONCE): 4/10 (40%), 10/23 (43%), -8%, not significant
tumour outcome (control, treated, inhibition, significance) (Dose [Inhibitor]: 0.05, 0.1 OR 0.2 MILLIMOLAR/KG DIET FOR 32 WK STARTING 1 WK AFTER THE CARCINOGEN DOSE (STUDY DURATION: 33 WK), Strain/Sex: SYRIAN/MALE, Target Tissue: Type of Lesion: COMMON DUCT: ADENOMA, Dose [Carcinogen]: 40 MG/KG ONCE): 4/12 (33%), 14/26 (54%), -64%, not significant
tumour outcome (control, treated, inhibition, significance) (Dose [Inhibitor]: 0.05, 0.1 OR 0.2 MILLIMOLAR/KG DIET FOR 32 WK STARTING 1 WK AFTER THE CARCINOGEN DOSE (STUDY DURATION: 33 WK), Strain/Sex: SYRIAN/MALE, Target Tissue: Type of Lesion: GALL BLADDER: ADENOMA, Dose [Carcinogen]: 40 MG/KG ONCE): 3/12 (25%), 10/26 (39%), -56%, not significant
tumour outcome (control, treated, inhibition, significance) (Dose [Inhibitor]: 0.05, 0.1 OR 0.2 MILLIMOLAR/KG DIET FOR 32 WK STARTING 1 WK AFTER THE CARCINOGEN DOSE (STUDY DURATION: 33 WK), Strain/Sex: SYRIAN/MALE, Target Tissue: Type of Lesion: LIVER: ADENOMA, Dose [Carcinogen]: 40 MG/KG ONCE): 6/12 (50%), 12/26 (46%), 8%, not significant
tumour outcome (control, treated, inhibition, significance) (Dose [Inhibitor]: 0.05, 0.1 OR 0.2 MILLIMOLAR/KG DIET FOR 32 WK STARTING 1 WK AFTER THE CARCINOGEN DOSE (STUDY DURATION: 33 WK), Strain/Sex: SYRIAN/MALE, Target Tissue: Type of Lesion: LUNG: ADENOMA, Dose [Carcinogen]: 40 MG/KG ONCE): 1/12 (8%), 2/26 (8%), 0%, not significant
tumour outcome (control, treated, inhibition, significance) (Dose [Inhibitor]: 0.05, 0.1 OR 0.2 MILLIMOLAR/KG DIET FOR 32 WK STARTING 1 WK AFTER THE CARCINOGENDOSE (STUDY DURATION: 33 WK), Strain/Sex: SYRIAN/MALE, Target Tissue: Type of Lesion: PANCREAS: ADENOMA, Dose [Carcinogen]: 40 MG/KG ONCE): 12/12 (100%), 26/26 (100%), 0%, not significant
tumour outcome (control, treated, inhibition, significance) (Dose [Inhibitor]: 0.05, 0.1 OR 0.2 MILLIMOLAR/KG DIET FOR 32 WK STARTING 1 WK AFTER THE CARCINOGENDOSE (STUDY DURATION: 33 WK), Strain/Sex: SYRIAN/MALE, Target Tissue: Type of Lesion: PANCREAS: CARCINOMA, Dose [Carcinogen]: 40 MG/KG ONCE): 6/12 (50%), 13/26 (50%), 0%, not significant
tumour outcome (control, treated, inhibition, significance) (Dose [Inhibitor]: 0.05, 0.1 OR 0.2 MM/KG DIET FOR 32 WK STARTING 1 WK AFTER THE CARCINOGEN DOSE (STUDY DURATION: 33 WK), Strain/Sex: SYRIAN/FEMALE, Target Tissue: Type of Lesion: PANCREAS: ADENOCARCINOMA, Dose [Carcinogen]: 40 MG/KG ONCE): 2/10 (20%), 2/23 (9%), 55%, not significant
tumour outcome (control, treated, inhibition, significance) (Dose [Inhibitor]: 0.05, 0.1 OR 0.2 MM/KG DIET FOR 32 WK STARTING 1 WK AFTER THE CARCINOGEN DOSE (STUDY DURATION: 33 WK), Strain/Sex: SYRIAN/FEMALE, Target Tissue: Type of Lesion: PANCREAS: CARCINOMA IN SITU, Dose [Carcinogen]: 40 MG/KG, ONCE, ONE WK PRIOR TO START OF AGENT TREATMENT): 1/10 (10%), 7/23 (30%), -200%, not significant
tumour outcome (control, treated, inhibition, significance) (Dose [Inhibitor]: 0.05, 0.1 OR 0.2 MM/KG DIET FOR 32 WK STARTING 1 WK AFTER THE CARCINOGEN DOSE (STUDY DURATION: 33 WK), Strain/Sex: SYRIAN/FEMALE, Target Tissue: Type of Lesion: PANCREAS: INTRADUCTAL CARCINOMA, Dose [Carcinogen]: 40 MG/KG, ONCE, ONE WK PRIOR TO START OF AGENT TREATMENT): 2/10 (20%), 3/23 (9%), 55%, not significant
tumour outcome (control, treated, inhibition, significance) (Dose [Inhibitor]: 0.05, 0.1 OR 0.2 MM/KG DIET FOR 32 WK STARTING 1 WK AFTER THE CARCINOGEN DOSE (STUDY DURATION: 33 WK), Strain/Sex: SYRIAN/MALE, Target Tissue: Type of Lesion: PANCREAS: ADENOCARCINOMA, Dose [Carcinogen]: 40 MG/KG, ONCE, ONE WK PRIOR TO START OF AGENT TREATMENT): 1/12 (8%), 2/26 (8%), 0%, not significant
tumour outcome (control, treated, inhibition, significance) (Dose [Inhibitor]: 0.05, 0.1 OR 0.2 MM/KG DIET FOR 32 WK STARTING 1 WK AFTER THE CARCINOGEN DOSE (STUDY DURATION: 33 WK), Strain/Sex: SYRIAN/MALE, Target Tissue: Type of Lesion: PANCREAS: CARCINOMA IN SITU, Dose [Carcinogen]: 40 MG/KG, ONCE, ONE WK PRIOR TO START OF AGENT TREATMENT): 3/12 (25%), 8/26 (31%), -24%, not significant
tumour outcome (control, treated, inhibition, significance) (Dose [Inhibitor]: 0.05, 0.1 OR 0.2 MM/KG DIET FOR 32 WK STARTING 1 WK AFTER THE CARCINOGEN DOSE (STUDY DURATION: 33 WK), Strain/Sex: SYRIAN/MALE, Target Tissue: Type of Lesion: PANCREAS: INTRADUCTAL CARCINOMA, Dose [Carcinogen]: 40 MG/KG, ONCE, ONE WK PRIOR TO START OF AGENT TREATMENT): 2/12 (17%), 3/26 (12%), 29%, not significant
tumour outcome (control, treated, inhibition, significance) (Dose [Inhibitor]: 0.05, 0.1 OR 0.2 MM/KG DIET FOR 32 WK STARTING 1 WK AFTER THE CARCINOGEN DOSE (STUDY DURATION: 33 WK), Strain/Sex: SYRIAN/MALE, Target Tissue: Type of Lesion: PANCREAS: MICROCARCINOMA, Dose [Carcinogen]: 40 MG/KG, ONCE, ONE WK PRIOR TO START OF AGENT TREATMENT): 3/12 (25%), 4/26 (15%), 40%, not significant
